From article PMC4646407, “Tripartite ATP-independent Periplasmic (TRAP) Transporters Use an Arginine-mediated Selectivity Filter for High Affinity Substrate Binding” (The Journal of Biological Chemistry, 2015)

How the values were obtained:
SiaP (SiaP-His6) [1] = molecular target: SiaP (SiaP-His6) (Haemophilus influenzae, UniProt P44542, R170K/F193W); conditions: 50 mM Tris/HCl, pH 8.0; 0.5 μM protein
SiaP (SiaP-His6) [2] = molecular target: SiaP (SiaP-His6) (Haemophilus influenzae, UniProt P44542, F193W); conditions: 50 mM Tris/HCl, pH 8.0
Sequence of SiaP (SiaP-His6) (Haemophilus influenzae, UniProt P44542, F193W) (P44542 24-329 F193W): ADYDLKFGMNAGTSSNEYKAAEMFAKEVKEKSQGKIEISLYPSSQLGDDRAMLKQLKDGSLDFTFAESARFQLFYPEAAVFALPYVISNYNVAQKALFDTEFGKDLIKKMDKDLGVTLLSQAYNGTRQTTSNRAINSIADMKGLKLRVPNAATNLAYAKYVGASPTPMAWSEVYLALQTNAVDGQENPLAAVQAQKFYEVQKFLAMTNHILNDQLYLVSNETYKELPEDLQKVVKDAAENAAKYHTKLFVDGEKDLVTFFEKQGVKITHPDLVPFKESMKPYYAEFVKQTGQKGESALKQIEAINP

SiaP (SiaP-His6) [3] = molecular target: T1, SiaP (SiaP-His6) (Haemophilus influenzae, UniProt P44542); assay: intrinsic tyrosine fluorescence titration; assay type: binding; conditions: 50 mM Tris/HCl, pH 8.0; 0.05 μM protein
T1 construct: C-terminal His6 tag; expressed in E. coli BL21(DE3) pLysS (pET21b, pAH16) with native signal peptide, purified from periplasm
T1 sequence (P44542 24-329): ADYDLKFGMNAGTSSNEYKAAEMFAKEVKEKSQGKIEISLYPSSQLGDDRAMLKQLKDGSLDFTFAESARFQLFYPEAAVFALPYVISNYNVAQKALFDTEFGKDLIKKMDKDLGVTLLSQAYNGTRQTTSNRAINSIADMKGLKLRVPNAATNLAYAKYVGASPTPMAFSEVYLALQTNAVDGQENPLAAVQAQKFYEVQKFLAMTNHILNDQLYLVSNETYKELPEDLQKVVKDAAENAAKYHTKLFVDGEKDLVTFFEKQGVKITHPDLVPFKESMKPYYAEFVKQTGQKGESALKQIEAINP

Sequence of SiaP (SiaP-His6) (Haemophilus influenzae, UniProt P44542, R170K/F193W) (P44542 24-329 R170K/F193W): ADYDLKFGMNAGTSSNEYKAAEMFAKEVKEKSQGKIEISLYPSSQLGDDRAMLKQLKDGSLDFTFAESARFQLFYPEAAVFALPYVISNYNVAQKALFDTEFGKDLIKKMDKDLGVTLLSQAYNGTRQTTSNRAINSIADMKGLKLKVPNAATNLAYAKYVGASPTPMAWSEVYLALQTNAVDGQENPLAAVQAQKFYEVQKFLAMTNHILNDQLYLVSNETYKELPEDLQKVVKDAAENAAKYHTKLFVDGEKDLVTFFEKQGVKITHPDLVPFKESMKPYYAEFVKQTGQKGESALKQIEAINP

CC(=O)N[C@H]1[C@H]([C@H](O)[C@H](O)CO)OC(O)(C(=O)O)C[C@@H]1O (stereo partly drawn) [Neu5Ac]
Kd (SiaP (SiaP-His6) [1]): 38700 ± 8300 µM
Kd (SiaP (SiaP-His6) [2]): 1.21 ± 0.03 µM
Kd (SiaP (SiaP-His6) [3]): 0.14 ± 0.04 µM
